Assay results taken from patent publication US20260184700A1, “PDK1 REGULATORY COMPOUND AND COMPOSITION CONTAINING THE SAME” (PROVIBIO CO., LTD., priority 2024, published 2026).

Key:
[1] = test system: Human Melanoma cancer cell, Malme-3M; assay: Relative cell viability, CCK-8, Malme-3M; assay type: cell-based; conditions: 48 hours
Method: Human-derived breast cancer cell line MCF-7, human-derived lung cancer cell line A549, human-derived colorectal cancer cell line HCT-116, human pancreatic cancer cell line AsPC-1, glioblastoma cell line A172, and melanoma cell line Malme-3M were obtained from the Korean Cell Bank. gastric cancer cell line SNU-719, and bladder cancer cell line T24 were cultured in RPMI-1640 medium containing 10% FBS.
Following stabilization, the cells were harvested using Trypsin-EDTA treatment, centrifuged at 1,200 rpm for 3 minutes, the supernatant was removed, and the cells were resuspended in the same medium. They were then seeded into a 96-well plate (Costar 96-well cell culture plate, Corning) at 100 μL per well, and the conditions were adjusted as indicated in Table 5.
The cells were cultured in a 5% CO2 incubator at 37° C. for 24 hours, and after stabilization of the cells, each plate was washed with 200 μL of PBS per well and treated with 50 μL of culture medium per well.
After that, 10 μL of CCK-8 was added to each well, and the plate was incubated again at 37° C. in a 5% CO2 incubator for 2 hours.
In other words, when the survival rate of untreated cells (DMSO) is set at 100%, the relative cell survival rate in each group treated with the drug at different concentrations is indicated.

[2] = test system: bleomycin-treated Balb/c mice; assay: Bleomycin-induced pulmonary fibrosis animal model; assay type: in vivo, mouse; conditions: bleomycin mice lung, vs BLM-treated group
Description: To evaluate the therapeutic efficacy of the compound according to the present invention against pulmonary fibrosis, an animal model of pulmonary fibrosis induced by bleomycin intratracheal administration was established.
For this purpose, 8-week-old male Balb/c mice were subjected to general anesthesia using an inhalation anesthetic (2-3% isoflurane in oxygen), followed by disinfection of the neck region, skin incision, and exposure of the trachea.
Bleomycin (Sigma-Aldrich, USA) was directly administered into the trachea at a concentration of 5 mg/kg in a solution of 100 μL.
Two days prior to Bleomycin administration, the compound of the present invention or the comparative drug was administered intraperitoneally at the specified concentration and dose, and the administration was continued once daily for a total of 14 days.
The experimental groups included Normal, Bleomycin alone (BLM), and BLM plus the compound of the present invention (BLM+GO88, 0.2 mg/kg).
Ten days later, the mice were euthanized humanely using carbon dioxide gas, the trachea was incised, and PBS was injected into the trachea to remove blood from the lungs.
The lung tissue washed with PBS was excised, fixed in 4% paraformaldehyde solution for 24 hours, and then paraffin blocks and tissue sections were prepared. The prepared sections were subjected to pathological analysis using H & E, Masson's trichrome, and Sirius red staining.
Additionally, immunohistochemical (IHC) staining was performed for α-SMA (α-smooth muscle actin), an indicator of lung fibroblast activation.

[3] = test system: MRL/lpr mice; assay: Lupus animal model (MRL/lpr mice); assay type: in vivo, mouse; conditions: 41-week-old female MRL/lpr mice; GO15F (30 mg/kg), GO48 (1 mg/kg), GO88 (0.5 mg/kg) intraperitoneally once daily
Description: The MRL/MpJ-Faslpr/J (Hereinafter Referred to as “MRL/lpr”) used in this experiment is one of the representative animal models for systemic lupus erythematosus (SLE), known to produce various autoantibodies, including antinuclear antibodies, due to the lpr (lymphoproliferation) gene.
In this invention, the period up to 9 weeks of age was considered the pre-disease stage, and the period after 23 weeks of age was considered the post-disease stage, and efficacy verification experiments using this model were conducted.
MRL/lpr mice were imported from The Jackson Laboratory and acclimatized for one week in an SPF (Specific Pathogen Free) facility maintained at a temperature of 21-24° C., humidity of 40-60%, and a 12-hour light-dark cycle (lights on at 7:00 AM, lights off at 7:00 PM). […]
The serum separated at the time of necropsy of the lupus animal model was analyzed using the ‘IgG (Total) Mouse Uncoated ELISA Kit (Invitrogen, Cat. #88-50400)’ to measure the concentration of total IgG.
Capture antibody (anti-mouse IgG) diluted 1/250 in coating buffer was added to each well of a 96-well plate (Nunc™ MaxiSorp™ ELISA Plates, Uncoated, BioLegend, Cat. #423501) at 100 μl per well, and the plate was incubated at 4° C. for 16 hours.
To investigate the effect of GO15F administration on changes in the ratio of immune cells in the spleen of a lupus animal model, the spleens of mice administered each compound were excised, cells were extracted, and the cells were suspended in MACS buffer (autoMACS Washing Solution, Miltenyi Biotec., Cat. #130-092-987).
For flow cytometry analysis, FACS tubes (5 mL round tubes, Falcon, Cat. #352052) were used. To prevent non-specific binding of antibodies, 1 μg/mL of anti-mouse CD16/CD32 (InVivoPlus anti-mouse CD16/CD32, BioXCell, Cat. #BP0307) for 30 minutes to prevent non-specific binding of the antibody, then centrifuge at 1,500 rpm for 5 minutes and resuspend in 100 μL of MACS buffer.
For B cells, each FACS tube was stained with 1 μg/mL of FITC-conjugated anti-B220 antibody (eBioscience™, Cat. #11-0452-81) at 4° C. for 30 minutes, then washed with 2 mL of MACS buffer.
For T cells, each FACS tube was stained with 1 μg/mL PerCP-Cy5.5-conjugated anti-CD3 (Biolegend, Cat. #100218) at 4° C. for 30 minutes.
For macrophages, each FACS tube was stained with 1 μg/mL of PE-conjugated anti-CD11b antibody (Biolegend, Cat. #101207) and PerCP-Cy5.5-conjugated anti-F4/80 (Biolegend, Cat. #123128) and incubated at 4° C. for 30 minutes. The tubes were then washed with 2 mL of MACS buffer.
To investigate the effects of compound GO15F according to the present invention on systemic immune responses in a lupus animal model, gene expression analysis of cytokines in kidney tissue was performed as described in (1).
Each kidney tissue was used to isolate total RNA using TRIzol™ (Invitrozen, Cat. #15596018). RNA from each mouse was quantified at 1 μg using a micro-quantitative spectrophotometer (ThermoFisher Scientific, ND2000) and cDNA was synthesized.
The synthesized cDNA from each mouse was quantified to a concentration of 50 ng using a micro-quantitative spectrophotometer, and qPCR was performed for the cytokines ‘IL-2, IL-6, IL-10, IL-17, TNF-α, IFN-γ’ using a SYBR green probe (CFX96, BIO-RAD).
To investigate the effects of drug administration on renal tissue in MRL/lpr mice, the tissue was fixed in 10% neutral buffered formalin at room temperature, followed by stepwise ethanol penetration for dehydration. The tissue was then embedded in xylene and paraffin.
The blocked tissues were sectioned into 4 μm thick slices using a microtome, followed by deparaffinization, hydration, and staining.
Hematoxylin & Eosin staining, PAS staining, and Masson trichrome staining were performed for pathological evaluation of the tissues. […]

Compound	Relative cell viability (%) ([1]; 1 μM)	Relative cell viability (%) ([1]; 10 μM)	Relative cell viability (%) ([1]; 30 μM)	Relative cell viability (%) ([1]; 50 μM)	collagen deposition (Masson's trichrome and Sirius red staining) [2]	expression of α-SMA (IHC) [2]	hair growth on the facial region [3]
CC1(C)CN(CCCCCCCCCCCCC(=O)Nc2nc(N)c3[nH]cnc3n2)CCO1 [Compound 11, 12-[4-(2,2-dimethylmorpholin-4-yl)]dodecyl-N-(6-aminopurine-2-yl)carboxamide]	44.06	37.40	36.80	38.87	–	–	–
Nc1ncccc1C(=O)NCCCCCCCCCCCCN1CCNCC1 [Compound 14, 2-Amino-N-(12-(piperazin-1-yl)dodecyl)nicotinamide]	–	–	–	–	significantly reduced	significantly suppressed	hair growth was confirmed
